The text below walks through data of ChEMBL document CHEMBL2390838, “Structure-based identification of ureas as novel nicotinamide phosphoribosyltransferase (Nampt) inhibitors” (J Med Chem, 2013).

What all share (assay type): ADME, organism-based
The nature of data set [1]: Oral bioavailability in BALB/c mouse at 5 mg/kg. To be noted: in vivo.
Data set [2] can be described thus: Volume of distribution at steady state in BALB/c mouse at 1 mg/kg, iv. Further details: dose 1 mg/kg, route intravenous. The following applies: in vivo, read-out: Vdss.
Data set [3] is described as follows: AUC(infinity) in BALB/c mouse at 5 mg/kg, po. Further details: time infinity, dose 5 mg/kg, route oral. The following applies: plasma.
Data set [4] can be described thus: AUC(infinity) in BALB/c mouse at 1 mg/kg, iv. Further details: time infinity, dose 1 mg/kg, route intravenous. The following applies: plasma.
The nature of data set [5]: Cmax in BALB/c mouse at 5 mg/kg, po. Also noted: dose 5 mg/kg, route oral. To be noted: in vivo.
Data set [6] is described as follows: Tmax in BALB/c mouse at 5 mg/kg, po. Further details: dose 5 mg/kg, route oral. To be noted: in vivo.
Data set [7] can be described thus: Cmax in BALB/c mouse at 1 mg/kg, iv. The following applies: in vivo. Further details: dose 1 mg/kg, route intravenous.
Data set [8] in a line: Tmax in BALB/c mouse at 1 mg/kg, iv. Also noted: dose 1 mg/kg, route intravenous. To be noted: in vivo.

In data set [1], `O=C(NCc1cccnc1)Nc1ccc(S(=O)(=O)N2CC3CCC(C2)O3)cc1` gave a bioavailability of 26%. Further, the Vd in data set [2] turned out to be 1.1 L/kg. Moreover, the figures for the AUC(0-inf) in data set [3] and in data set [4] were 1.4 µM·h and 0.92 µM·h, respectively. Also, the Cmax in data set [5] was 1100 nM; in data set [7] it was 2700 nM. For the same compound, the time to peak (Tmax) was 30 min in data set [6] and 4.8 min in data set [8].

By bioavailability is commonly meant the share of a dose that reaches the circulation, judged against a reference dose that is usually intravenous. Low readings indicate little systemic uptake, high ones much systemic uptake. The AUC(0-inf) is the area under the concentration-time curve extrapolated to infinity. A low value points to low exposure. The term Cmax denotes the maximum level reached in the sampled fluid or tissue. As usually defined, the Tmax is the time from dosing to the highest level.
